{
  "source": "paper PMC5656653",
  "about": "“Evaluation of Ga-DOTA-(D-Asp)n as bone imaging agents: D-aspartic acid peptides as carriers to bone” (Scientific Reports, 2017)",
  "assay": "Biodistribution experiments in normal mice after i.v. injection",
  "assay_type": "in vivo",
  "conditions": "mouse, in vivo, iv; for tissue uptake dose at 1 h / tissue uptake dose at 3 h / tissue uptake dose at 10 min: male, ddY, total radioactivity, Biodistribution of radioactivity",
  "experimental": "Experiments with animals were conducted in strict accordance with the Guidelines for the Care and Use of Laboratory Animals of Kanazawa University. The animal experimental protocols used were approved by the Committee on Animal Experimentation of Kanazawa University (Permit Number: AP-132633). Biodistribution experiments were performed after intravenous administration of each diluted tracer solution (37–740 kBq/100 μL) to 6-week-old male ddY mice (27–32 g, Japan SLC, Inc., Hamamatsu, Japan). Four or five mice at each time point after the administration of each compound were sacrificed by decapitation at 10, 60, and 180 min post-injection. Tissues of interest were taken and weighed. Complete left femurs were isolated as representative bone samples, radioactivity was determined using gamma counters (AccuFLEX γ ARC-8001 in the case of ^18F, Hitachi, Ltd.), and background counts and physical decay were corrected during counting.",
  "note": "Where a SMILES comes first, the peptide text is derived from it. [ ]: non-standard residue; d: D form. The star is where a group is joined. DOTA = O=C(O)CN1CCN(CC(=O)O)CCN(CC(=O)*)CCN(CC(=O)O)CC1",
  "data": [
    {"smiles": "O=C(O)C[C@@H](NC(=O)[C@@H](CC(=O)O)NC(=O)[C@@H](CC(=O)O)NC(=O)[C@@H](CC(=O)O)NC(=O)[C@@H](CC(=O)O)NC(=O)CN1CCN(CC(=O)O)CCN(CC(=O)O)CCN(CC(=O)O)CC1)C(=O)O", "note": "[^67Ga-DOTA-(D-Asp)5, metal not drawn] ({DOTA}-[dD][dD][dD][dD][dD]-OH)", "values": [
      {"measurement": "tissue uptake dose at 1 h", "setting": "Blood", "result": 0.27, "unit": "%ID"},
      {"measurement": "tissue uptake dose at 3 h", "setting": "Blood", "result": 0.13, "unit": "%ID"},
      {"measurement": "tissue uptake dose at 10 min", "setting": "Bone (Femur)", "result": 6.78, "unit": "%ID"},
      {"measurement": "tissue uptake dose at 1 h", "setting": "Bone (Femur)", "result": 5.01, "unit": "%ID"},
      {"measurement": "tissue uptake dose at 3 h", "setting": "Bone (Femur)", "result": 2.8, "unit": "%ID"},
      {"measurement": "tissue uptake dose at 10 min", "setting": "Brain", "result": 0.1, "unit": "%ID"},
      {"measurement": "tissue uptake dose at 1 h", "setting": "Brain", "result": 0.02, "unit": "%ID"},
      {"measurement": "tissue uptake dose at 3 h", "setting": "Brain", "result": 0.01, "unit": "%ID"},
      {"measurement": "tissue uptake dose at 10 min", "setting": "Heart", "result": 1.03, "unit": "%ID"},
      {"measurement": "tissue uptake dose at 1 h", "setting": "Heart", "result": 0.12, "unit": "%ID"},
      {"measurement": "tissue uptake dose at 3 h", "setting": "Heart", "result": 0.06, "unit": "%ID"},
      {"measurement": "tissue uptake dose at 10 min", "setting": "Kidney", "result": 12, "unit": "%ID"},
      {"measurement": "tissue uptake dose at 1 h", "setting": "Kidney", "result": 6.31, "unit": "%ID"},
      {"measurement": "tissue uptake dose at 3 h", "setting": "Kidney", "result": 1.45, "unit": "%ID"},
      {"measurement": "tissue uptake dose at 10 min", "setting": "Large-intestine", "result": 0.47, "unit": "%ID"},
      {"measurement": "tissue uptake dose at 1 h", "setting": "Large-intestine", "result": 0.22, "unit": "%ID"},
      {"measurement": "tissue uptake dose at 3 h", "setting": "Large-intestine", "result": 0.22, "unit": "%ID"},
      {"measurement": "tissue uptake dose at 10 min", "setting": "Liver", "result": 0.67, "unit": "%ID"},
      {"measurement": "tissue uptake dose at 1 h", "setting": "Liver", "result": 0.22, "unit": "%ID"},
      {"measurement": "tissue uptake dose at 3 h", "setting": "Liver", "result": 0.14, "unit": "%ID"},
      {"measurement": "tissue uptake dose at 10 min", "setting": "Lung", "result": 2.03, "unit": "%ID"},
      {"measurement": "tissue uptake dose at 1 h", "setting": "Lung", "result": 0.3, "unit": "%ID"},
      {"measurement": "tissue uptake dose at 3 h", "setting": "Lung", "result": 0.09, "unit": "%ID"},
      {"measurement": "tissue uptake dose at 10 min", "setting": "Muscle", "result": 0.68, "unit": "%ID"},
      {"measurement": "tissue uptake dose at 1 h", "setting": "Muscle", "result": 0.13, "unit": "%ID"},
      {"measurement": "tissue uptake dose at 3 h", "setting": "Muscle", "result": 0.07, "unit": "%ID"},
      {"measurement": "tissue uptake dose at 10 min", "setting": "Pancreas", "result": 0.72, "unit": "%ID"},
      {"measurement": "tissue uptake dose at 1 h", "setting": "Pancreas", "result": 0.25, "unit": "%ID"},
      {"measurement": "tissue uptake dose at 3 h", "setting": "Pancreas", "result": 0.06, "unit": "%ID"},
      {"measurement": "tissue uptake dose at 10 min", "setting": "Small-intestine", "result": 0.55, "unit": "%ID"},
      {"measurement": "tissue uptake dose at 1 h", "setting": "Small-intestine", "result": 0.23, "unit": "%ID"},
      {"measurement": "tissue uptake dose at 3 h", "setting": "Small-intestine", "result": 0.18, "unit": "%ID"},
      {"measurement": "tissue uptake dose at 10 min", "setting": "Spleen", "result": 0.56, "unit": "%ID"},
      {"measurement": "tissue uptake dose at 1 h", "setting": "Spleen", "result": 0.16, "unit": "%ID"},
      {"measurement": "tissue uptake dose at 3 h", "setting": "Spleen", "result": 0.11, "unit": "%ID"},
      {"measurement": "tissue uptake dose at 10 min", "setting": "Stomach", "result": 0.32, "unit": "%ID"},
      {"measurement": "tissue uptake dose at 1 h", "setting": "Stomach", "result": 0.1, "unit": "%ID"},
      {"measurement": "tissue uptake dose at 3 h", "setting": "Stomach", "result": 0.48, "unit": "%ID"},
      {"measurement": "Accumulation of radioactivity in bone (in words)", "result": "moderate accumulation of radioactivity in bone"}
    ]},
    {"smiles": "O=C(O)C[C@@H](NC(=O)[C@@H](CC(=O)O)NC(=O)[C@@H](CC(=O)O)NC(=O)[C@@H](CC(=O)O)NC(=O)[C@@H](CC(=O)O)NC(=O)[C@@H](CC(=O)O)NC(=O)[C@@H](CC(=O)O)NC(=O)[C@@H](CC(=O)O)NC(=O)CN1CCN(CC(=O)O)CCN(CC(=O)O)CCN(CC(=O)O)CC1)C(=O)O", "note": "[^67Ga-DOTA-(D-Asp)8, metal not drawn] ({DOTA}-[dD][dD][dD][dD][dD][dD][dD][dD]-OH)", "values": [
      {"measurement": "tissue uptake dose at 10 min", "setting": "Blood", "result": 1.94, "unit": "%ID"},
      {"measurement": "tissue uptake dose at 1 h", "setting": "Blood", "result": 0.33, "unit": "%ID"},
      {"measurement": "tissue uptake dose at 3 h", "setting": "Blood", "result": 0.13, "unit": "%ID"},
      {"measurement": "tissue uptake dose at 10 min", "setting": "Bone (Femur)", "result": 9.86, "unit": "%ID"},
      {"measurement": "tissue uptake dose at 1 h", "setting": "Bone (Femur)", "result": 11.6, "unit": "%ID"},
      {"measurement": "tissue uptake dose at 3 h", "setting": "Bone (Femur)", "result": 12.5, "unit": "%ID"},
      {"measurement": "tissue uptake dose at 10 min", "setting": "Brain", "result": 0.05, "unit": "%ID"},
      {"measurement": "tissue uptake dose at 1 h", "setting": "Brain", "result": 0.01, "unit": "%ID"},
      {"measurement": "tissue uptake dose at 3 h", "setting": "Brain", "result": 0.01, "unit": "%ID"},
      {"measurement": "tissue uptake dose at 10 min", "setting": "Heart", "result": 0.63, "unit": "%ID"},
      {"measurement": "tissue uptake dose at 1 h", "setting": "Heart", "result": 0.14, "unit": "%ID"},
      {"measurement": "tissue uptake dose at 3 h", "setting": "Heart", "result": 0.05, "unit": "%ID"},
      {"measurement": "tissue uptake dose at 10 min", "setting": "Kidney", "result": 12.8, "unit": "%ID"},
      {"measurement": "tissue uptake dose at 1 h", "setting": "Kidney", "result": 2.49, "unit": "%ID"},
      {"measurement": "tissue uptake dose at 3 h", "setting": "Kidney", "result": 1.23, "unit": "%ID"},
      {"measurement": "tissue uptake dose at 10 min", "setting": "Large-intestine", "result": 0.26, "unit": "%ID"},
      {"measurement": "tissue uptake dose at 1 h", "setting": "Large-intestine", "result": 0.05, "unit": "%ID"},
      {"measurement": "tissue uptake dose at 3 h", "setting": "Large-intestine", "result": 0.08, "unit": "%ID"},
      {"measurement": "tissue uptake dose at 10 min", "setting": "Liver", "result": 0.46, "unit": "%ID"},
      {"measurement": "tissue uptake dose at 1 h", "setting": "Liver", "result": 0.14, "unit": "%ID"},
      {"measurement": "tissue uptake dose at 3 h", "setting": "Liver", "result": 0.11, "unit": "%ID"},
      {"measurement": "tissue uptake dose at 10 min", "setting": "Lung", "result": 1.34, "unit": "%ID"},
      {"measurement": "tissue uptake dose at 1 h", "setting": "Lung", "result": 0.26, "unit": "%ID"},
      {"measurement": "tissue uptake dose at 3 h", "setting": "Lung", "result": 0.1, "unit": "%ID"},
      {"measurement": "tissue uptake dose at 10 min", "setting": "Muscle", "result": 0.57, "unit": "%ID"},
      {"measurement": "tissue uptake dose at 1 h", "setting": "Muscle", "result": 0.15, "unit": "%ID"},
      {"measurement": "tissue uptake dose at 3 h", "setting": "Muscle", "result": 0.14, "unit": "%ID"},
      {"measurement": "tissue uptake dose at 10 min", "setting": "Pancreas", "result": 0.57, "unit": "%ID"},
      {"measurement": "tissue uptake dose at 1 h", "setting": "Pancreas", "result": 0.11, "unit": "%ID"},
      {"measurement": "tissue uptake dose at 3 h", "setting": "Pancreas", "result": 0.08, "unit": "%ID"},
      {"measurement": "tissue uptake dose at 10 min", "setting": "Small-intestine", "result": 0.39, "unit": "%ID"},
      {"measurement": "tissue uptake dose at 1 h", "setting": "Small-intestine", "result": 0.13, "unit": "%ID"},
      {"measurement": "tissue uptake dose at 3 h", "setting": "Small-intestine", "result": 0.1, "unit": "%ID"},
      {"measurement": "tissue uptake dose at 10 min", "setting": "Spleen", "result": 0.42, "unit": "%ID"},
      {"measurement": "tissue uptake dose at 1 h", "setting": "Spleen", "result": 0.16, "unit": "%ID"},
      {"measurement": "tissue uptake dose at 3 h", "setting": "Spleen", "result": 0.09, "unit": "%ID"},
      {"measurement": "tissue uptake dose at 10 min", "setting": "Stomach", "result": 0.34, "unit": "%ID"},
      {"measurement": "tissue uptake dose at 1 h", "setting": "Stomach", "result": 0.04, "unit": "%ID"},
      {"measurement": "tissue uptake dose at 3 h", "setting": "Stomach", "result": 0.1, "unit": "%ID"},
      {"measurement": "Accumulation of radioactivity in bone (in words)", "result": "high accumulation and retention of radioactivity in bone"}
    ]}
  ]
}
